Three compounds from US9474790B2, “Stable, protracted GLP-1/glucagon receptor co-agonists for medical use” (Novo Nordisk A/S, priority 2013, dated 2016) can be followed below.

Data set [1] can be described thus: Thioflavin T (ThT) fibrillation assay for physical stability. Format: physicochemical. Conditions: 250 μM in 10 mM HEPES buffer, pH 7.5, 37° C., shaking 960 rpm. An excerpt:
The purpose of this assay was to assess the physical stability of the glucagon derivatives of the invention in aqueous solutions.
Low physical stability of a peptide may lead to amyloid fibril formation, which is observed as well-ordered, thread-like macromolecular structures in the sample, which eventually may lead to gel formation. This has traditionally been measured by visual inspection of the sample. However, that kind of measurement is very subjective and depending on the observer. Therefore, the application of a small molecule indicator probe is much more advantageous. Thioflavin T (ThT) is such a probe and has a distinct fluorescence signature when binding to fibrils [Naiki et al; Anal. Biochem. 1989 177 244-249; LeVine; Methods. Enzymol. 1999 309 274-284].
The time course for fibril formation can be described by a sigmoidal curve with the following expression [Nielsen et al; Biochemistry 2001 40 6036-6046]:
Here, as depicted in FIG. 1, F is the ThT fluorescence at the time t. The constant t0 is the time needed to reach 50% of maximum fluorescence. The two important parameters describing fibril formation are the lag-time calculated by t0−2τ and the apparent rate constant kapp 1/τ.
Samples were prepared freshly before each assay. Each sample composition is described in the legends. The pH of the sample was adjusted to the desired value using appropriate amounts of concentrated NaOH and HCl. Thioflavin T was added to the samples from a stock solution in H2O to a final concentration of 1 μM.
Sample aliquots of 200 μl (250 μM of the glucagon derivative/analogue in 10 mM HEPES buffer, pH 7.5) were placed in a 96 well microtiter plate (Packard OptiPlate™-96, white polystyrene). Usually, four or eight replica of each sample (corresponding to one test condition) were placed in one column of wells. The plate was sealed with Scotch Pad (Qiagen).
Incubation at given temperature, shaking and measurement of the ThT fluorescence emission were done in a Fluoroskan Ascent FL fluorescence plate reader (Thermo Labsystems). The temperature was set to 37° C. and the plate was incubated with orbital shaking adjusted to 960 rpm with an amplitude of 1 mm. Fluorescence measurement was done using excitation through a 444 nm filter and measurement of emission through a 485 nm filter.
Each run was initiated by incubating the plate at the assay temperature for 10 min. The plate was measured every 20 minutes for a desired period of time. Between each measurement, the plate was shaken and heated as described.
After completion of the ThT assay the four or eight replica of each sample was pooled and centrifuged at 20000 rpm for 30 minutes at 18° C. The supernatant was filtered through a 0.22 μm filter and an aliquot was transferred to a HPLC vial.
The concentration of peptide in the initial sample and in the filtered supernatant was determined by reverse phase HPLC using an appropriate standard as reference. The percentage fraction the concentration of the filtered sample constituted of the initial sample concentration was reported as the recovery.
The measurement points were saved in Microsoft Excel format for further processing and curve drawing and fitting was performed using GraphPad Prism. The background emission from ThT in the absence of fibrils was negligible. The data points were typically a mean of four or eight samples.
The data set may be fitted to Eq. (1).

Another data set has as its target T1, human GLP-1 receptor (Homo sapiens, UniProt P43220).
T1 construct: expressed in transfected cells; host or cells: BHK cells (parent BHKTS13), clone FCW467-12A/KZ10-1, with CRE luciferase
Description: GLP-1 receptor binding, 125I-GLP-1 displacement SPA on isolated membranes. The conditions noted are these: displacement of 125I-GLP-1 from membranes; read-out: IC50 GLP-1R. The procedure:
The purpose of this assay was to test the in vitro receptor binding activity of the glucagon derivatives of the invention. The receptor binding is a measure of affinity of a compound for the human GLP-1 receptor.
The receptor binding of each compound to the human GLP-1 receptor was measured in a displacement binding assay. In this type of assay a labelled ligand (in this case 125I-GLP-1) is bound to the receptor. Each derivative was added in a series of concentrations to isolated membranes containing the human GLP-1 receptor and displacement of the labelled ligand was monitored. The receptor binding was reported as the concentration at which half of the labelled ligand was displaced from the receptor, the IC50 value.
In order to test the binding of the derivatives to albumin, the assay may be performed in a very low concentration of serum albumin (max. 0.001% final assay concentration) as well as in the presence of a higher concentration of serum albumin (2.0% final assay concentration). An increase of the IC50 value, in the presence of serum albumin indicates an affinity to serum albumin and represents a method to predict a protracted pharmacokinetic profile of the test substance in animal models.
The following chemicals were used in the assay: DMEM w/o phenol red (Gibco 11880-028), Pen/strep (Invitrogen 15140-122), G418 (Invitrogen 10131-027), 1 M Hepes (Gibco 15630), EDTA (Invitrogen 15575-038), PBS (Invitrogen 14190-094), fetal calf serum (Invitrogen 16140-071), EGTA, MgCl2 (Merck 1.05832.1000), Tween 20 (Amresco 0850C335), SPA particles (wheat germ agglutinin (WGA) SPA beads, Perkin Elmer RPNQ0001), [125I]-GLP-1]-(7-36)NH2 (produced in-house), OptiPlate™-96 (Perkin Elmer).
Buffer 1 consisted of 20 mM Na-HEPES plus 10 mM EDTA and pH was adjusted to 7.4.
Buffer 2 consisted of 20 mM Na-HEPES plus 0.1 mM EDTA and pH was adjusted to 7.4.
Assay buffer consisted of 50 mM HEPES supplemented with 5 mM EGTA, 5 mM MgCl2, 0.005% Tween 20 and pH was adjusted to 7.4.
The cells used in this assay (clone FCW467-12A) were BHK cells with BHKTS13 as a parent cell line. The cells express the human GLP-1 receptor.
The cells were grown at 5% CO2 in DMEM, 10% fetal calf serum, 1% Pen/Strep (Penicillin/Streptomycin) and 1.0 mg/ml of the selection marker G418. To make a membrane preparation the cells were grown to approximately 80% confluence. The cells were washed twice in phosphate-buffered saline and harvested. The cells were pelleted using a brief centrifugation and the cell pellet was kept on ice. The cell pellet was homogenised with ULTRA-THURRAX dispersing instrument for 20-30 sec in a suitable amount of buffer 1 (e.g. 10 ml). The homogenate was centrifuged for 15 min. The pellet was re-suspended (homogenised) in 10 ml buffer 2 and centrifuged. This step was repeated once more. The resulting pellet was re-suspended in buffer 2 and the protein concentration was determined. The membranes were aliquoted and stored at minus 80° C.
1. For the receptor binding assay, 50 μl of the assay buffer was added to each well of an assay plate.
2. Test compounds were serially diluted to give the following concentrations: 8×10EE-7 M, 8×10EE-8 M, 8×10EE-9 M, 8×10EE-10 M, 8×10EE-11 M, 8×10EE-12 M and 8×10EE-13 M. Twenty-five μl were added to appropriate wells in the assay plate.
3. Cell membrane aliquots were thawed and diluted to their working concentration. Fifty μl were added to each well in the assay plate.
4. WGA SPA beads were suspended in assay buffer at 20 mg/ml. The suspension was diluted to 10 mg/ml in assay buffer just prior to addition to the assay plate. Fifty μl were added to each well in the assay plate.
5. The incubation was started by adding 25 μl of 480 pM solution of [125I]-GLP-1]-(7-36)NH2 to each well of the assay plate. A 25 μl aliquot was reserved for measuring total counts/well.
6. The assay plate was incubated for 2 h at 30° C.
7. The assay plate was centrifuged for 10 min.
8. The assay plate was read in a Perkin Elmer TopCount NXT instrument. […]

The IC50 is the concentration at which inhibition is half-maximal.

Numbered stars: 1 amine (or outer) side, 2 acyl side, 3 side chain; on linkers, the order of the positions; unused ones are H or OH. Square brackets hold non-standard residues; d marks the D form. Side chains are listed from the residue outwards. Peptide text beside a SMILES is read from it. * marks the point of attachment. C18 diacid = O=C(O)CCCCCCCCCCCCCCCCC(=O)*; γGlu = O=C(O)[C@H](CCC(=O)[*:2])N[*:1]; AEEA = NCCOCCOCC(=O)O; Aib = CC(C)(N)C(=O)O

T1 sequence (P43220 24-463): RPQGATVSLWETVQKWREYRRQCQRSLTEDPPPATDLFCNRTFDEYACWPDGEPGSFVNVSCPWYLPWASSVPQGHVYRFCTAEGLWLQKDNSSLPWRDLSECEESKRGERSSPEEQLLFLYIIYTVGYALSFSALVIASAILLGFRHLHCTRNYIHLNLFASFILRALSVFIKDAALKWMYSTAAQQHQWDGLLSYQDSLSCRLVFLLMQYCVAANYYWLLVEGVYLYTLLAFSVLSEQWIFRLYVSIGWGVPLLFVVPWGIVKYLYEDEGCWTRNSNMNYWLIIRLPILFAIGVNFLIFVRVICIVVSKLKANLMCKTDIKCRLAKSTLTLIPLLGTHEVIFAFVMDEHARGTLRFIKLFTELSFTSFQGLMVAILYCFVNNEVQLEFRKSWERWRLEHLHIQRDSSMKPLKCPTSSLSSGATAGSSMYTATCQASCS

`CC(C)C[C@H](NC(=O)[C@H](CC(C)C)NC(=O)[C@H](Cc1c[nH]c2ccccc12)NC(=O)[C@H](CCC(N)=O)NC(=O)[C@@H](NC(=O)[C@H](Cc1ccccc1)NC(=O)[C@H](CCC(=O)O)NC(=O)[C@H](CCCNC(=N)N)NC(=O)[C@H](C)NC(=O)[C@H](C)NC(=O)[C@H](CCCNC(=N)N)NC(=O)[C@H](CO)NC(=O)[C@H](CC(=O)O)NC(=O)[C@H](CC(C)C)NC(=O)[C@H](Cc1ccc(O)cc1)NC(=O)[C@H](CCCCN)NC(=O)[C@H](CO)NC(=O)[C@H](CC(C)C)NC(=O)[C@H](CC(=O)O)NC(=O)[C@H](CO)NC(=O)[C@@H](NC(=O)[C@H](Cc1ccccc1)NC(=O)[C@@H](NC(=O)CNC(=O)[C@H](CCC(N)=O)NC(=O)C(C)(C)NC(=O)[C@@H](N)Cc1c[nH]cn1)[C@@H](C)O)[C@@H](C)O)C(C)C)C(=O)N[C@@H](CC(N)=O)C(=O)N[C@@H](CCCCNC(=O)CC[C@H](NC(=O)CC[C@H](NC(=O)COCCOCCNC(=O)COCCOCCNC(=O)CC[C@H](NC(=O)CCCCCCCCCCCCCCCCC(=O)O)C(=O)O)C(=O)O)C(=O)O)C(N)=O` [Example 9, N^ε29-[(4S)-4-carboxy-4-[[(4S)-4-carboxy-4-[[2-[2-[2-[[2-[2-[2-[[(4S)-4-carboxy-4-(17-carboxyheptadecanoylamino)butanoyl]amino]ethoxy]ethoxy]acetyl]amino]ethoxy]ethoxy]acetyl]amino]butanoyl]amino]butanoyl]-[Aib2,Leu10,Ala18,Arg20,Glu21,Leu27,Lys29]-Glucagon amide] (H-H[Aib]QGTFTSDLSKYLDSRAAREFVQWLLNK([γGlu-γGlu-AEEA-AEEA-γGlu-C18 diacid])-NH2; N-terminus assumed) gave a THT assay Lag time (Ex. 76) in data set [1] of 8 h. The IC50 on human GLP-1 receptor is 0.2 nM.
For `CC(C)C[C@H](NC(=O)[C@H](Cc1ccc(O)cc1)NC(=O)[C@H](CCCCN)NC(=O)[C@H](CO)NC(=O)[C@H](CC(C)C)NC(=O)[C@H](CC(=O)O)NC(=O)[C@H](CO)NC(=O)[C@@H](NC(=O)[C@H](Cc1ccccc1)NC(=O)[C@@H](NC(=O)CNC(=O)[C@H](CCC(N)=O)NC(=O)C(C)(C)NC(=O)[C@@H](N)Cc1c[nH]cn1)[C@@H](C)O)[C@@H](C)O)C(=O)N[C@@H](CCC(=O)O)C(=O)N[C@@H](CO)C(=O)N[C@@H](CCCCN)C(=O)N[C@@H](C)C(=O)N[C@@H](C)C(=O)N[C@@H](CCCNC(=N)N)C(=O)N[C@@H](CCC(=O)O)C(=O)N[C@@H](Cc1ccccc1)C(=O)N[C@H](C(=O)N[C@@H](CCC(N)=O)C(=O)N[C@@H](Cc1c[nH]c2ccccc12)C(=O)N[C@@H](CC(C)C)C(=O)N[C@@H](CC(C)C)C(=O)N[C@@H](CCCCNC(=O)CC[C@H](NC(=O)CC[C@H](NC(=O)COCCOCCNC(=O)COCCOCCNC(=O)CC[C@H](NC(=O)CCCCCCCCCCCCCCCCC(=O)O)C(=O)O)C(=O)O)C(=O)O)C(=O)N[C@H](C(N)=O)[C@@H](C)O)C(C)C` [Example 24, N^ε28-[(4S)-4-carboxy-4-[[(4S)-4-carboxy-4-[[2-[2-[2-[[2-[2-[2-[[(4S)-4-carboxy-4-(17-carboxyheptadecanoylamino)butanoyl]amino]ethoxy]ethoxy]acetyl]amino]ethoxy]ethoxy]acetyl]amino]butanoyl]amino]butanoyl]-[Aib2,Leu10,Glu15,Lys17,Ala18,Arg20,Glu21,Leu27, Lys28]-Glucagon amide] (H-H[Aib]QGTFTSDLSKYLESKAAREFVQWLLK([γGlu-γGlu-AEEA-AEEA-γGlu-C18 diacid])T-NH2; N-terminus assumed) the same measures were 28 h and 0.2 nM.
For `CC(C)C[C@H](NC(=O)[C@H](Cc1c[nH]c2ccccc12)NC(=O)[C@H](C)NC(=O)[C@@H](NC(=O)[C@H](Cc1ccccc1)NC(=O)[C@H](CCC(=O)O)NC(=O)[C@H](CCCNC(=N)N)NC(=O)[C@H](C)NC(=O)[C@H](C)NC(=O)[C@H](CCCCN)NC(=O)[C@H](CCCCNC(=O)CC[C@H](NC(=O)CC[C@H](NC(=O)COCCOCCNC(=O)COCCOCCNC(=O)CC[C@H](NC(=O)CCCCCCCCCCCCCCCCC(=O)O)C(=O)O)C(=O)O)C(=O)O)NC(=O)[C@H](CC(=O)O)NC(=O)[C@H](CC(C)C)NC(=O)[C@H](Cc1ccc(O)cc1)NC(=O)[C@H](CCCCN)NC(=O)[C@H](CO)NC(=O)[C@H](CC(C)C)NC(=O)[C@H](CC(=O)O)NC(=O)[C@H](CO)NC(=O)[C@@H](NC(=O)[C@H](Cc1ccccc1)NC(=O)[C@@H](NC(=O)CNC(=O)[C@H](CCC(N)=O)NC(=O)C(C)(C)NC(=O)[C@@H](N)Cc1c[nH]cn1)[C@@H](C)O)[C@@H](C)O)C(C)C)C(=O)N[C@@H](CC(C)C)C(=O)N[C@@H](CC(N)=O)C(=O)N[C@H](C(N)=O)[C@@H](C)O` [Example 17, N^ε29-[(4S)-4-carboxy-4-[[(4S)-4-carboxy-4-[[2-[2-[2-[[2-[2-[2-[[(4S)-4-carboxy-4-(17-carboxyheptadecanoylamino)butanoyl]amino]ethoxy]ethoxy]acetyl]amino]ethoxy]ethoxy]acetyl]amino]butanoyl]amino]butanoyl]-[Aib2,Leu10,Lys16,Lys17,Ala18,Arg20,Glu21,Ala24, Leu27]-Glucagon amide] (H-H[Aib]QGTFTSDLSKYLDK([γGlu-γGlu-AEEA-AEEA-γGlu-C18 diacid])KAAREFVAWLLNT-NH2) the same measures were 45 h and 0.2 nM.
